Converted amounts (≈) assume the structure as drawn.
Columns and labels:
[1] = test system: Pasteurella multocida; assay: The minimum inhibitory concentration (MIC) of the cyclohexylamide analogs against Pasteurella multocida; type: functional
[2] = test system: Brachyspira hyodysenteriae; assay: The minimum inhibitory concentration (MIC) of the cyclohexylamide analogs against Serpulina hyodysenteriae; type: functional

SMILES	MIC [1]	MIC [2]
CO[C@@H]1[C@H](O)[C@@H](O)[C@@H](NC(=O)/C(C)=C\c2ccc(O[C@@H]3O[C@H](C(C)=O)[C@@H](O)[C@@H]3O)c(O)c2)[C@@H](O)[C@@H]1OC	> 400 µg/mL	100 µg/mL (≈ 190 µM)
CO[C@@H]1[C@H](NC(=O)/C(C)=C\c2ccc(O[C@@H]3O[C@H](C(C)=O)[C@@H](O)[C@@H]3O)c(O)c2)[C@H](O)[C@@H](O)[C@H]2OCO[C@H]21	12.5 µg/mL (≈ 23.8 µM)	6.25 µg/mL (≈ 11.9 µM)
CO[C@@H]1[C@@H](O)[C@H]2OCO[C@H]2[C@H](O)[C@@H]1NC(=O)/C(C)=C\c1ccc(O[C@@H]2O[C@H](C(C)=O)[C@@H](O)[C@@H]2O)c(O)c1	12.5 µg/mL (≈ 23.8 µM)	3.13 µg/mL (≈ 5.96 µM)
CC(=O)[C@H]1O[C@@H](Oc2ccc(/C=C(\C)C(=O)N[C@@H]3[C@H](O)[C@@H](O)[C@H]4OCO[C@H]4[C@@H]3O)cc2O)[C@@H](O)[C@@H]1O [HYGROMYCIN A]	1.56 µg/mL (≈ 3.05 µM)	1.56 µg/mL (≈ 3.05 µM)
CC(=O)[C@H]1O[C@@H](Oc2ccc(/C=C(\C)C(=O)N[C@H]3C4OC(C5OCOC54)[C@H]3O)cc2O)[C@@H](O)[C@@H]1O (some centres undefined)	> 200 µg/mL	> 200 µg/mL
CC(=O)[C@H]1O[C@@H](Oc2ccc(/C=C(/C)C(=O)N[C@H]3[C@@H](O)[C@@H]4OCO[C@@H]4[C@H](O)[C@@H]3O)cc2O)[C@@H](O)[C@@H]1O	12.5 µg/mL (≈ 24.4 µM)	3.13 µg/mL (≈ 6.12 µM)
CO[C@@H]1[C@@H](O)[C@@H](NC(=O)/C(C)=C\c2ccc(O[C@@H]3O[C@H](C(C)=O)[C@@H](O)[C@@H]3O)c(O)c2)[C@@H](O)[C@@H]2OCO[C@H]12	100 µg/mL (≈ 190 µM)	25 µg/mL (≈ 47.6 µM)

Reference: ChEMBL document CHEMBL1126450, “Semisynthetic modification of hygromycin A. 3. synthesis and antibacterial activity of aminocyclitol analogs” (1992)
